Measurements taken from patent publication US10864210B2, “Composition and combined medication method for treating enterovirus infection” (priority 2016, dated 2020).

Key:
Type in all cases: cell-based, Enterovirus 71
EV71 [1] = assay: Evaluation experiment for compounds: inhibition of EV71-induced CPE in RD cells (CellTiter-Glo); conditions: single compound, 2-fold dilutions
Protocol: Itraconazole purchased from Sigma-Aldrich is dissolved in DMSO to a final concentration of 10 mM; suramin purchased from Bayer is dissolved in a medium containing 2% FBS to a final concentration of 50 mM; favipiravir purchased from Chembest is dissolved in DMSO to a final concentration of 400 mM; rupintrivir purchased from Santa Cruz is dissolved in DMSO to a final concentration of 2 mM; and GW5074 purchased from Sigma is dissolved in DMSO to a final concentration of 10 mM. To evaluate the inhibition of EV71-induced CPE activity by five compounds, the inventors perform dose dependent experiments.
The raw data are input into an Excel sheet to calculate the signal-to-background ratio (S/B), the signal-to-noise ratio (S/N), Z factor, and the inhibition rate of the test compound against the virus. […] The antiviral activity of the compound CPE inhibition rate=(μcpd−μv)/(μc−μv)×100%, wherein μcpd represents the average signal intensity of the test compound; and the effect of the compound on the cell, cell survival rate=μcpd/μc×100%. The half maximum effect concentration (EC50) is a concentration that causes a 50% maximum effect. The half-cytotoxic concentration (CC50) refers to a concentration of the medicament that causes 50% cytotoxicity, which is expressed in this experiment as a 50% reduction in the fluorescence intensity of the experimental group compared with the control group.
(A) 2-fold dilution of itraconazole, rupintrivir, favipiravir, suramin, and GW5074 were separately added to RD cells, and virus or medium was added and cultured for 96 hours. The cell viability was measured by CellTiter-Glo kit. The inhibitory effects of […] compounds on EV71 and the toxic effects on cells were examined. (B) Virus and 2-fold dilution of itraconazole, rupintrivir, favipiravir, suramin, and GW5074 were separately added into RD cells. After 48 hours of culture, the supernatant was collected and the viral titer was determined by TCID50 method. The results were processed using Graphpad Prism5. The data in the figure were obtained from two independent parallel experiments, and the error bars represent the standard deviation of the two parallel experiments.

[2] = system: EV71 containing 3D protein mutation; assay: Mutant virus resistance experiment based on cytopathic effect in Vero cells; conditions: CPE-based
Protocol: To determine the resistance of the selected mutant virus and recombinant virus to the compound, the inventors conduct experiments based on cytopathic effects and viral titer reduction experiments. […] EV71 G082 strain is served as a control.
The supernatant from the 16th passage culture was collected and sequenced. EV71 containing 3D protein mutation was constructed by reverse genetics system. The viral titer was determined by plaque formation assay, the virus resistance to favipiravir was detected by viral titer reduction experiment. The experimental method was the same as the compound verification experiment. (B) The effects of itraconazole, rupintrivir, suramin and GW5074 on a virus containing 3D protein mutation were determined using an experiment based on cytopathic effect. The results were processed using Graphpad Prism5. The data in the figure were obtained from two independent parallel experiments, and the error bars represent the standard deviation of the two parallel experiments.

EV71 [3] = assay: Viral titer reduction experiment (single compound)
Protocol: (§1) RD cells are seeded in a 12-well plate with 3×10^5 cells/well, cultured overnight at 37° C. for 24 hours. Then EV71 virus solution with MOI=0.1 and 2-fold dilution of itraconazole, rupintrivir, favipiravir, suramin and GW5074 are added and cultured at 37° C. for 48 h. The supernatant is collected, frozen in a −80° C. refrigerator, and then determined for viral titer. To determine the resistance of the passaged virus to favipiravir, the inventors inoculate Vero cells in a 12-well plate, 3×10^5 cells/well and culture overnight at 37° C. After 24 hours, EV71 virus solution with MOI=0.1 is added and 300 μM and 600 μM favipiravir are separately added. After cultured at 37° C. for 48 hours, the supernatant is collected and frozen in a −80° C. refrigerator, and then the viral titer is measured.
EV71, itraconazole, and 0.5 μM or 1 μM of rupintrivir were simultaneously added to Vero cells, the virus was subcultured, and the supernatant was collected.

[4] = system: EV71 having amino acid residue mutation at position 121 in the 3D protein; assay: Favipiravir resistance screening and viral titer reduction experiment in Vero cells; conditions: viral titer reduction
Protocol: as §1
The present inventors conduct a passage experiment to screen a favipiravir resistant strain. 3×10^5 Vero cells are seeded in a 12-well plate, cultured overnight at 37° C. […] After 16 continuous passages, the titer of the virus in the supernatant, the resistance to the compound, and sequencing are determined. […]
The supernatant from the 16th passage culture was collected and sequenced. […] The viral titer was determined by plaque formation assay, the virus resistance to favipiravir was detected by viral titer reduction experiment. […]

SMILES	inhibition of EV71 infection of cells (EV71 [1])	cross-resistance of favipiravir-resistant mutant virus compared with wild type virus (G082) [2]	removal of viruses in the cell culture by single compound (EV71 [3])	resistance of EV71 with position 121 3D protein mutation to the compound [4]
O=C1Nc2ccc(I)cc2/C1=C/c1cc(Br)c(O)c(Br)c1 [GW5074]	effective in inhibiting EV71 infection of cells in a dose-dependent manner	no cross-resistance was found		
CCC(C)n1ncn(-c2ccc(N3CCN(c4ccc(OCC5COC(Cn6cncn6)(c6ccc(Cl)cc6Cl)O5)cc4)CC3)cc2)c1=O (centres unmarked) [itraconazole]	effective in inhibiting EV71 infection of cells in a dose-dependent manner	no cross-resistance was found	could not remove all the viruses in the cell culture	
NC(=O)c1nc(F)cnc1O [favipiravir]	effective in inhibiting EV71 infection of cells in a dose-dependent manner			resistant
Cc1ccc(C(=O)Nc2ccc(S(=O)(=O)O)c3cc(S(=O)(=O)O)cc(S(=O)(=O)O)c23)cc1NC(=O)c1cccc(NC(=O)Nc2cccc(C(=O)Nc3cc(C(=O)Nc4ccc(S(=O)(=O)O)c5cc(S(=O)(=O)O)cc(S(=O)(=O)O)c45)ccc3C)c2)c1 [suramin]	effective in inhibiting EV71 infection of cells in a dose-dependent manner	no cross-resistance was found		
CCOC(=O)/C=C/[C@H](C[C@@H]1CCNC1=O)NC(=O)[C@@H](CC(=O)[C@@H](NC(=O)c1cc(C)on1)C(C)C)Cc1ccc(F)cc1 [rupintrivir]	effective in inhibiting EV71 infection of cells in a dose-dependent manner	no cross-resistance was found		
